Source: article PMC6934184, “Selective DNA-PKcs inhibition extends the therapeutic index of localized radiotherapy and chemotherapy” (The Journal of Clinical Investigation, 2019)

Target: T1, RPS6KB1 (p70S6K) (Homo sapiens, UniProt P23443)
T1 construct: purchased Thermo Fisher Scientific (Life Technologies) SelectScreen
Assay: SelectScreen Z'LYTE
Assay type: biochemical
Method in brief: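 SelectScreen broad panel; activity (Z'LYTE, Adapta) plus binding formats. ATP: Km app for CSF1R Z'LYTE; 10 for CAMK1 Adapta. Readout = % per kinase.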

T1 sequence (P23443 whole entry): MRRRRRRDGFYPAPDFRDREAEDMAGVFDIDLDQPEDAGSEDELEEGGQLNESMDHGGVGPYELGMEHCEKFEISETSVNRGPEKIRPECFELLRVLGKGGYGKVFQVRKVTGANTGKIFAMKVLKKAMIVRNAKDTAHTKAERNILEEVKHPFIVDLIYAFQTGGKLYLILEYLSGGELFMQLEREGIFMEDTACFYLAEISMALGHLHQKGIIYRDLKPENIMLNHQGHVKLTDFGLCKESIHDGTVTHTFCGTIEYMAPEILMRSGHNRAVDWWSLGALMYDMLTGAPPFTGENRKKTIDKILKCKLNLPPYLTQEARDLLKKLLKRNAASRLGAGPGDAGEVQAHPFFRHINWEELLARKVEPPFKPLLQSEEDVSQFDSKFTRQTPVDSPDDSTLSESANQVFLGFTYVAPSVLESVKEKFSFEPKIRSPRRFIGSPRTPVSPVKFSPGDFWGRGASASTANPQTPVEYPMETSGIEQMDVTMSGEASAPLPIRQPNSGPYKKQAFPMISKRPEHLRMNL

## CN(C(=O)CN1CCOCC1)c1ccc2sc3c(-c4cccc5c(=O)cc(N6CC7CCC(C6)O7)oc45)cccc3c2c1 [NU5455]
  inhibition at 1 µM: -7.8%
